# Test results: paper PMC4311893 (ChemMedChem, 2014)
# Key:
# [1] = target: T1, human arginase-I (Mn-hArgI) (Homo sapiens, UniProt P05089); assay: urea formation assay, IC50 […] with Cheng-Prusoff Ki; assay type: biochemical
# T1 sequence (P05089 1-322): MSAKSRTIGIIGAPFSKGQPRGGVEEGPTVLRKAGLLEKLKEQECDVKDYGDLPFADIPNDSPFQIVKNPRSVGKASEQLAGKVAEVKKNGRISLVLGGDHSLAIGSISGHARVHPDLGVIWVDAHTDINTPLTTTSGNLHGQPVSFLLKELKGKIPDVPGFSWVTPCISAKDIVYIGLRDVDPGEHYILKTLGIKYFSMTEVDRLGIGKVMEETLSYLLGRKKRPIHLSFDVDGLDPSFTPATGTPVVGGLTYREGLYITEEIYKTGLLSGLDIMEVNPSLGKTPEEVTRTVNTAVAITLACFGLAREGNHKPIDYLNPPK
# [2] = target: dimethylarginine dimethylaminohydrolase-1 (DDAH-1) (Homo sapiens, UniProt O94760); assay: time-dependent inactivation kinetics in competition with ADMA; assay type: biochemical; conditions: read-out: Ki
# dimethylarginine dimethylaminohydrolase-1 (DDAH-1), sequence (O94760 whole entry): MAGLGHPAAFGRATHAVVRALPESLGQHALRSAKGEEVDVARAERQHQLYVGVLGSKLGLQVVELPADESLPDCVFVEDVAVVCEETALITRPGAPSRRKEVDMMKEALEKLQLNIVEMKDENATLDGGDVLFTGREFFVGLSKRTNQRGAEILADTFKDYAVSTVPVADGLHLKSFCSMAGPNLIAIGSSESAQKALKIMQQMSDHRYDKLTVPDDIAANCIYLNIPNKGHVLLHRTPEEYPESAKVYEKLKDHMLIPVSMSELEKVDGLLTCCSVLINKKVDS
smiles,measurement,setting,value
"N=C(CCl)NCCC[C@H](N)C(=O)O [Cl-NIO, N^5-(1-imino-2-chloroethyl)-L-ornithine]",Ki,[1],3100 µM
same,KI (inactivation),[2],1.3 ± 0.6 µM
